Patent publication US6730064B2, “Coated implantable medical device” (Cook Incorporated, priority 1998, dated 2004)

Experiments:
[1] = In-vitro flow system (10 ml/min, 1% BSA in PBS): antibody remaining on stent; format: physicochemical; details: after approximately 10 days perfusion
Description: In still another aspect of the present invention as depicted in FIG. 11, coating layer 16 can be considered an adsorbent layer and/or an absorbent layer in which a bioactive material is attached thereto. In one particular example, device 10 is a stainless steel GR II™ stent in which the stainless steel base material 14 of structure 12 is coated with a polymer and, in particular, parylene. This adsorbent polymer layer 16 of parylene is approximately 230,000 Å thick. Bioactive material layer 18 of the antiplatelet GP IIb/IIIa antibody (AZ1) was passively loaded on adsorbent polymer layer 16. The polymer coated stainless steel stents were immersed for approximately 24 hours in a buffered aqueous solution of AZ1 antibody (1 mg/ml, pH=7.2) at 37° C. AZ1 is a monoclonal anti-rabbit platelet glycoprotein (GP) IIb/IIIa antibody.
In another example, c7E3 Fab as bioactive material layer 18 is attached to polymer coating layer 16. Bioactive material c7E3 Fab is a chimeric monoclonal antibody that acts upon the […] integrin on platelets to inhibit their aggregation. This antibody or receptor blocker can be used in humans intravenously to prevent thrombosis during coronary angioplasty. This receptor blocker is also known as ReoPro™ available from Eli Lilly, Indianapolis, Ind. […]

[2] = system: stented coronary arteries; assay: One-month pig studies, qualitative histopathologic analysis; format: in vivo, Juvenile domestic swine
Experimental: (§1) No other antiplatelet agents or anticoagulants were given.
(§2) Angiograms were recorded immediately before stent implantation, immediately after stent implantation and at 1 month follow-up. Immediately after the follow-up angiography, the hearts were excised and the coronary vasculature was perfusion fixed at physiologic pressure. The vessels were then processed to obtain histologic cross sections for morphometric analysis from proximal, middle and distal locations within each stent.
(§3) Computer assisted quantitative coronary angiography (QCA) analysis and histomorphometric analysis were performed on each stented artery. Qualitative histopathologic analysis was also performed, with each artery evaluated for both injury and inflammation.

[3] = system: porcine coronary in-stent restenosis model; assay: Slow-release paclitaxel coated GR II stents versus control; format: in vivo; details: 175-200 μg total drug
Description: Furthermore, the coating itself appears biocompatible.

in-stent restenosis = assay: Fast-release low-dose and high-dose paclitaxel-coated stents versus control; format: in vivo, porcine
[4] = system: pigs with stented coronary arteries; details: in vivo
Description: (§4) Juvenile domestic swine received one stent in the left anterior descending coronary artery (LAD) and/or one stent in the left circumflex (LCX) or right coronary arteries (RCA). To account for differences in vessel diameter prior to stenting, the deployment pressure for each stent was adjusted to achieve a balloon-to-artery ratio (BAR) of approximately 1.1-1.2. The pigs were followed for 1 month after stent implantation.
(§5) The pigs were fed a standard high fiber diet without lipid or cholesterol supplementation. For antiplatelet effect, each pig was administered approximately 325 mg aspirin and 250 mg ticlopidine daily, starting at least 2 days prior to surgery and continuing until the end of the study. Each pig was also administered approximately 10,000 units heparin during stent implantation and approximately 10,000 units heparin during follow-up angiography. No other antiplatelet agents or anticoagulants were given.

[5] = system: pigs with stented coronary arteries; assay: One-month pig studies, premature deaths and safety
Description: as §4, §5

[6] = system: stented coronary arteries (in-stent restenosis); assay: One-month pig studies, histomorphometric analysis; format: in vivo, Juvenile domestic swine; details: 1-month F/U
Experimental: as §1, §2, §3

[7] = system: stented coronary arteries (in-stent restenosis); assay: One-month pig studies, quantitative coronary angiography (QCA); format: in vivo, Juvenile domestic swine; details: 1 month
Experimental: as §1, §2, §3

[8] = 400 μg paclitaxel+parylene N stents

c7E3 Fab: chimeric monoclonal antibody acting on platelet GP IIb/IIIa integrin to inhibit aggregation
loaded antibody remaining on the stent [1]: approximately half

CC(=O)O[C@H]1C(=O)[C@@]2(C)[C@H]([C@H](OC(=O)c3ccccc3)[C@]3(O)C[C@H](OC(=O)[C@H](O)[C@@H](NC(=O)c4ccccc4)c4ccccc4)C(C)=C1C3(C)C)[C@]1(OC(C)=O)CO[C@@H]1C[C@@H]2O [Paclitaxel, paclitaxel]
histologic sections with occasional small patches of luminal fibrin ([2]; 5 μg paclitaxel stents): none
histologic sections with vessel wall hypocellularity and hyalinization ([2]; 5 μg paclitaxel stents): approximately 28%
histologic sections with occasional small patches of luminal fibrin ([2]; 15 μg paclitaxel stents): none
histologic sections with vessel wall hypocellularity and hyalinization ([2]; 15 μg paclitaxel stents): approximately 67%
histologic sections with occasional small patches of luminal fibrin ([2]; 35 μg paclitaxel stents): approximately 50%
histologic sections with vessel wall hypocellularity and hyalinization ([2]; 35 μg paclitaxel stents): over 80%
histologic sections with occasional small patches of luminal fibrin ([2]; 85 μg paclitaxel stents): approximately 50%
histologic sections with vessel wall hypocellularity and hyalinization ([2]; 85 μg paclitaxel stents): over 80%
histologic sections with occasional small patches of luminal fibrin [2, 8]: approximately 50%
histologic sections with vessel wall hypocellularity and hyalinization [2, 8]: over 80%
in-stent restenosis compared with controls [3]: significantly reduced
Area Stenosis (in-stent restenosis; Low-Dose): 19.3 ± 9.45 %
in-stent restenosis compared to control stents (in-stent restenosis; high-dose): significantly reduced
in-stent restenosis compared to control stents (in-stent restenosis; low-dose): significantly reduced
safety problems related to the stents [4]: no safety problems
Premature Deaths ([5]; 5 μg paclitaxel on stent): One pig (stents in LAD &
Premature Deaths ([5]; 5 μg paclitaxel on stent, listed as paclitaxel): One pig
Premature Deaths ([5]; 15 μg paclitaxel on stent): One pig (stents in LAD &
Premature Deaths ([5]; 15 μg paclitaxel on stent, listed as paclitaxel): One pig
Premature Deaths ([5]; 35 μg paclitaxel on stent): None
Premature Deaths ([5]; 85 μg paclitaxel on stent): None
Premature Deaths ([5]; 400 μg paclitaxel + parylene N): None
Lumen Diameter ([6]; 5 μg paclitaxel on stent): 1.77 ± 0.34 mm
Neointimal Thickness ([6]; 5 μg paclitaxel on stent): 0.31 ± 0.20 mm
Outer Diameter ([6]; 5 μg paclitaxel on stent): 2.73 ± 0.28 mm
Wall Thickness ([6]; 5 μg paclitaxel on stent): 0.48 ± 0.23 mm
Lumen Diameter ([6]; 15 μg paclitaxel on stent): 1.87 ± 0.37 mm
Neointimal Thickness ([6]; 15 μg paclitaxel on stent): 0.29 ± 0.19 mm
Outer Diameter ([6]; 15 μg paclitaxel on stent): 2.41 ± 0.90 mm
Wall Thickness ([6]; 15 μg paclitaxel on stent): 0.46 ± 0.22 mm
Lumen Diameter ([6]; 35 μg paclitaxel on stent): 2.12 ± 0.52 mm
Neointimal Thickness ([6]; 35 μg paclitaxel on stent): 0.19 ± 0.16 mm
Outer Diameter ([6]; 35 μg paclitaxel on stent): 2.78 ± 0.32 mm
Wall Thickness ([6]; 35 μg paclitaxel on stent): 0.33 ± 0.17 mm
Lumen Diameter ([6]; 85 μg paclitaxel on stent): 2.40 ± 0.31 mm
Neointimal Thickness ([6]; 85 μg paclitaxel on stent): 0.15 ± 0.08 mm
Outer Diameter ([6]; 85 μg paclitaxel on stent): 2.96 ± 0.31 mm
Wall Thickness ([6]; 85 μg paclitaxel on stent): 0.28 ± 0.10 mm
Lumen Diameter ([6]; 400 μg paclitaxel + parylene N): 2.58 ± 0.19 mm
Neointimal Thickness ([6]; 400 μg paclitaxel + parylene N): 0.12 ± 0.06 mm
Outer Diameter ([6]; 400 μg paclitaxel + parylene N): 3.06 ± 0.17 mm
Wall Thickness ([6]; 400 μg paclitaxel + parylene N): 0.24 ± 0.07 mm
Late Loss ([7]; 5 μg paclitaxel on stent): 17.9 ± 20.3%
MLD at F/U ([7]; 5 μg paclitaxel on stent): 1.74 ± 0.45 mm
Mean Diameter at Follow-up ([7]; 5 μg paclitaxel on stent): 2.23 ± 0.51 mm
Late Loss ([7]; 15 μg paclitaxel on stent): 20.1 ± 19.9%
MLD at F/U ([7]; 15 μg paclitaxel on stent): 1.90 ± 0.38 mm
Mean Diameter at Follow-up ([7]; 15 μg paclitaxel on stent): 2.15 ± 0.43 mm
Late Loss ([7]; 35 μg paclitaxel on stent): 2.6 ± 7.5%
MLD at F/U ([7]; 35 μg paclitaxel on stent): 2.42 ± 0.25 mm
Mean Diameter at Follow-up ([7]; 35 μg paclitaxel on stent): 2.62 ± 0.21 mm
Late Loss ([7]; 85 μg paclitaxel on stent): 1.6 ± 8.1%
MLD at F/U ([7]; 85 μg paclitaxel on stent): 2.61 ± 0.15 mm
Mean Diameter at Follow-up ([7]; 85 μg paclitaxel on stent): 2.77 ± 0.22 mm
Late Loss ([7]; 400 μg paclitaxel + parylene N): 0.32 ± 7.1%
MLD at F/U ([7]; 400 μg paclitaxel + parylene N): 2.75 ± 0.17 mm
Mean Diameter at Follow-up ([7]; 400 μg paclitaxel + parylene N): 2.92 ± 0.22 mm
